# Measurements published in patent publication US6623933B1 (priority 1999, dated 2003).
# How the values were obtained:
# [1] = test system: primary cultures of rat hippocampal neurons; assay: NMDA-induced neuronal death, trypan blue exclusion; format: cell-based; details: acute 30 μM NMDA; steroid 100 μM (3α5β 50 μM)
# Description: (§1) Principally neuronal cultures were prepared from hippocampal tissue of fetal Sprague-Dawley rats on day 18 of embryonic development, as previously described (Brewer et al., Brain Research 494: 65-74 (1989)). Briefly, hippocampal cells were dissociated by trituration in Ca^2+/Mg^2+-free Hank's basic salt solution (Gibco) supplemented with 4.2 mM bicarbonate, 1 mM sodium pyruvate, 20 mM HEPES, 3 mg/ml bovine serum albumin (BSA). Dissociated cells were then pelleted by centrifugation (500×g, 4 min). […] Cells were then plated onto poly-L-lysine-coated 24-well culture dishes (Nunclon) at a density of 15,000 cell/cm^2 and maintained in a humidified atmosphere containing 5% CO2/95% air at 37° C. After 48 h, nonneuronal cell division was inhibited by a 48 h exposure to 1 μM cytosine arabinoside. Cultures were subsequently maintained in serum-free DMEM plus defined components and were used for experiments 16 to 24 days after plating.
# Steroids were dissolved in DMSO (0.5% final concentration), and all treatment media contained 0.5% DMSO. […] Following exposure, cultures were washed 3 times with medium from sister cultures (conditioned medium). After the final wash, steroid or vehicle was reintroduced. Drugs were added to cultures in 25 μl of conditioned medium to yield a final volume of 0.25 ml per well. Except where otherwise noted, final steroid concentration was 100 μM.
# The ability of neurons to exclude trypan blue was used to quantitate cell viability (Dawson et al., Proc Natl Acad Sci USA 88: 6368-6371 (1991)). […] Cultures were then fixed with 4% paraformaldehyde in PBS for 30 min, at whichtime the fixative was replaced with PBS. The number of stained and unstained neurons were counted in 4 high-power fields per culture well, using an inverted phase contrast microscope under both bright field and phase contrast settings. Experiments were performed in triplicate, and all assessments were made with the experimenter blind to the treatment of each culture well. Percent cell death is expressed as follows: (number of trypan blue stained neurons)/(total number of neurons)×100%.
# (§2) All data are expressed as mean±standard error of the mean. Statistical significance was evaluated using 95% confidence limits unless otherwise noted.
# [2] = target: T1, NR1100+NR2A NMDA receptor (Rattus norvegicus, UniProt P35439+Q00959); assay: NMDA-induced current (INMDA), Xenopus oocytes, Example 2; format: cell-based; details: 100 μM NMDA, 100 μM steroid
# T1 construct: expressed in transfected cells; host or cells: Xenopus oocytes co-injected with NR1100 and NR2A cRNA
# T1 sequence (Q00959 23-1464, other chains not shown): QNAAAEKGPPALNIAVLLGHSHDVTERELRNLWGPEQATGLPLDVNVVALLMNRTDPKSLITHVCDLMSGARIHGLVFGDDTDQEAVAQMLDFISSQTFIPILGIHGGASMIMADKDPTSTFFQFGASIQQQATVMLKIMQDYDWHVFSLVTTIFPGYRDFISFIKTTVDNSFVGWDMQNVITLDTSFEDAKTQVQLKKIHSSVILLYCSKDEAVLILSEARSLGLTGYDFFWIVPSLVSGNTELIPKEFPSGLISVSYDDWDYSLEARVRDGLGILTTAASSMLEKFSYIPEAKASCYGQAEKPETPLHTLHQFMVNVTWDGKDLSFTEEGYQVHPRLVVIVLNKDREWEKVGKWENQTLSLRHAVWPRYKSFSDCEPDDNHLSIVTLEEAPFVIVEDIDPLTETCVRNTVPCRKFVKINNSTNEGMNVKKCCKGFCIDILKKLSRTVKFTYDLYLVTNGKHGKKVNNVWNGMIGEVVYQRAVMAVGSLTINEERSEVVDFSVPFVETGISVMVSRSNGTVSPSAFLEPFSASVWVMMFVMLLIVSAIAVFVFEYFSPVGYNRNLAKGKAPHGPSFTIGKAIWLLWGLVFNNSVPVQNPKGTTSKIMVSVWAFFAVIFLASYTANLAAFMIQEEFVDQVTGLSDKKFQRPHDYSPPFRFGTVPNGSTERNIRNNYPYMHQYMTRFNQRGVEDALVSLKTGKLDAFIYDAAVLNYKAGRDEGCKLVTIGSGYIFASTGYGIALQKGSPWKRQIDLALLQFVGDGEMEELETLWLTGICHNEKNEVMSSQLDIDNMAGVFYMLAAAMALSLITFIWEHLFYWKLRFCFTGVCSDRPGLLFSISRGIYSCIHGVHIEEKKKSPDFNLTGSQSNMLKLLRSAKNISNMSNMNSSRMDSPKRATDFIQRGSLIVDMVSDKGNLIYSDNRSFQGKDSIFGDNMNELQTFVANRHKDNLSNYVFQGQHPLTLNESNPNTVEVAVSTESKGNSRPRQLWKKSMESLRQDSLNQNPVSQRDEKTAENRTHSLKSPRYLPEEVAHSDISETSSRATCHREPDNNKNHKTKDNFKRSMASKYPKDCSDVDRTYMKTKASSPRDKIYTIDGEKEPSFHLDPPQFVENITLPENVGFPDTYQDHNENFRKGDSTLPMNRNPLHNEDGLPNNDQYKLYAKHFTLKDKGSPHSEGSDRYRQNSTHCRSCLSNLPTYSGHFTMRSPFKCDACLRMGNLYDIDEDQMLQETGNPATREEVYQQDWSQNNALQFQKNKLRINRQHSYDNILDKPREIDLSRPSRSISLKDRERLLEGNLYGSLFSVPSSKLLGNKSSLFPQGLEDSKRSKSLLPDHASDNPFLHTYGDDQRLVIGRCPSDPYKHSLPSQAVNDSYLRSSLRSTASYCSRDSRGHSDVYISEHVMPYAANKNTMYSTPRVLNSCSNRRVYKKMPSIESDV
# Description: NR1100 (NR1G) and NR2A clones were kindly provided by Dr. R. S. Zukin (Albert Einstein College of Medicine, New York, N.Y.) and Dr. S. Nakanishi (Faculty of Medicine, Kyoto University, Kyoto, Japan), respectively. mRNA was prepared through in vitro transcription of NR1100 and NR2A cDNAs using the mMessage mMachine kit (Ambion, Tex.). On the day following isolation, batches of 20-40 selected Xenopus oocytes were injected with 50 nl of prepared RNA solution (0.5 ng NR1100 and 5 ng of NR2A mRNA/oocyte). Oocytes were maintained in glass petri dishes containing Barth's solution (84 mM NaCl, 1 mM KCl, 2.4 mM NaHCO3, 0.82 mM MgSO4, 0.41 mM CaCl2, 0.33 mM Ca(NO3)2, 2.5 mM pyruvate, 0.1 mg/ml gentamycin, 7.5 mM Tris/HCl, pH 7.4) in an incubator at 18° C. Oocytes were used for electrophysiological experiments 4-10 days after injection.
# Recordings from oocytes were obtained using the two electrode voltage-clamp mode with an Axoclamp-2A amplifier (Axon Instruments). The resistance of microelectrodes, pulled from glass capillaries and filled with 3 M KCl solution, was 2.5-3.5 M. Membrane potential was clamped at −70 mV. Drugs were applied by a gravity-driven external perfusion system. Drug application and data acquisition were carried out with custom-written software implemented in the SuperScopeII programming language (GW Instruments, Somerville, Mass.).
# The degree of modulation of NMDA-induced Ca^2+ influx, cell death, and currents is expressed as the percent change, defined as (I′/I−1)×100%, where I and I′ are the NMDA-induced responses in the absence and presence of modulator, respectively. All data are expressed as mean±standard error of the mean. Statistical significance was evaluated using 95% confidence limits unless otherwise noted.
# [3] = test system: middle cerebral artery occlusion in rats; details: Weaver et al. 1997; cited from earlier work
# [4] = test system: primary cultures of rat hippocampal neurons; assay: NMDA-induced increase in [Ca2+]i, Fluo-3 AM; format: cell-based; details: 5 μM NMDA; steroid 100 μM (3α5β 50 μM)
# Description: as §1
# DMSO was also added to controls to maintain a constant final DMSO concentration of […].
# as §2
# [5] = test system: primary cultures of rat hippocampal neurons; details: Weaver et al. 1997; cited from earlier work
Molecule,inhibition of NMDA-induced neuronal death [1] [%],inhibition of INMDA [2],inhibition of neuronal death after middle cerebral artery occlusion [3],reduction of NMDA-induced rise in [Ca2+]i [4],neuroprotection against NMDA-induced neuronal death [5]
pregnanolone hemisuccinate [3α5βHS],54±3,about equally effective in inhibiting INMDA,effective at inhibiting the neuronal death,approximately 40%,
C[C@]12CC[C@@H]3c4ccc(O)cc4CC[C@H]3[C@@H]1CC[C@@H]2O [17β-estradiol],,,,,neuroprotective against NMDA-induced neuronal death
